Experimental data reported in patent EP4674965A1, “SIRNA TARGETING INHIBIN ?E, SIRNA CONJUGATE, AND MEDICAL USE THEREOF” (Tuojie Biotech (Shanghai) Co., Ltd., priority 2023, dated 2024).
pIC50: −log10 of the molar value.

Assays:
human INHBE = experiment: Multi-concentration-point inhibitory activity against INHBE in human hepatoma cell line (Huh7), qPCR; type: cell-based; conditions: for Remaining percentage of target gene mRNA expression (Huh7) (mean, %): Huh7, 24 h; for pIC50: Huh7, INHBE mRNA, 24 h
Description: (§1) After the Q-PCR assay was completed, the corresponding Ct values were obtained based on the threshold automatically set by the system. The expression of a certain gene can be relatively quantified by comparing the Ct values. Comparing Ct refers to calculating the differences in gene expression by the differences from the Ct value of the internal reference gene, which is also referred to as 2-ΔΔCt, where ΔΔCt = [(Ct target gene in experimental group - Ct internal reference in experimental group) - (Ct target gene in control group - Ct internal reference in control group)]. Inhibition rate (%) = (1 - remaining level of target gene expression) × 100%.
(§2) The results are expressed relative to the remaining percentage of human INHBE mRNA expression in cells treated with the siRNA. The IC50 value corresponds to the concentration of the siRNA used when the remaining percentage of INHBE mRNA expression is 50%.
(§3) 24 h prior to transfection, Huh7 cells were seeded into a 96-well plate at about 15,000 cells/well, with each well containing 100 µL of a culture medium. The cells were transfected with the samples using Lipofectamine RNAi MAX (ThermoFisher, 13778150) following the instruction manual of the product, with the final concentration gradients of the samples for transfection being 20 nM, 4 nM, 0.8 nM, 0.16 nM, 0.032 nM, 0.0064 nM, and 0.00128 nM. After 24 h of treatment, total cellular RNA extraction was performed using a high-throughput cellular RNA extraction kit (FG0417-L/FG0418-XL, magnetic bead method), followed by an RNA reverse transcription experiment (Takara, RR037A) and a quantitative real-time PCR (Thermo, 4444557) assay. The mRNA level of human INHBE was determined and calibrated on the basis of the GAPDH internal reference gene level.
The instruments, primer information, and result analysis method involved in this experiment were used with reference to Example 4.

monkey INHBE = experiment: Multi-concentration-point inhibitory activity against INHBE in primary monkey hepatocytes (PCHs), qPCR; type: cell-based; conditions: 24 h; for pIC50: PCH, monkey INHBE mRNA
Description: as §1, §2
as §3, with “PCH” for “Huh7”, “30,000” for “15,000”, “monkey” for “human”
In the real-time quantitative PCR assay, a probe Q-PCR assay was used. Table 15. Taqman primer information
The result analysis method and calculation method for the remaining percentage of the target mRNA expression were the same as those in Example 4.

Q: Which “Remaining percentage of target gene mRNA expression (Huh7) (mean, %)” value (shortened to “Remaining percentage … (Huh7) (mean, %)”) (human INHBE; 0.00128 (nM per method)) does the source give for “TJR102152: siRNA conjugate (Tables 14, 16); SS SEQ ID NO: 245, AS SEQ ID NO: 269 (sense UAAUAAUACUAACAUGUUA; antisense UAACAUGUUAGUAUUAUUAUG; conjugate ligand attached, 2'-OMe/2'-F pattern not given here)” here?
A: 108.45%

Q: What about the “Remaining percentage … (Huh7) (mean, %)” value (human INHBE; 0.0064 (nM per method)) of the same substance?
A: 109.51%

Q: What about the “Remaining percentage … (Huh7) (mean, %)” value (human INHBE; 0.032 (nM per method)) of the same substance?
A: 98.76%

Q: What about the “Remaining percentage … (Huh7) (mean, %)” value (human INHBE; 0.16 (nM per method)) of the same substance?
A: 76.27%

Q: What about the “Remaining percentage … (Huh7) (mean, %)” value (human INHBE; 0.8 (nM per method)) of the same substance?
A: 51.25%

Q: And the “Remaining percentage … (Huh7) (mean, %)” value (human INHBE; 4 (nM per method))?
A: 37.74%

Q: What about the “Remaining percentage … (Huh7) (mean, %)” value (human INHBE; 20 (nM per method)) of the same substance?
A: 25.82%

Q: What about the pIC50 (human INHBE) of the same substance?
A: 9.04

Q: And the “Remaining percentage of target gene mRNA expression (PCH) (mean, %)” value (“Remaining percentage … (PCH) (mean, %)” for short) (monkey INHBE; 0.00128 (nM per method))?
A: 104.56%

Q: And the “Remaining percentage … (PCH) (mean, %)” value (monkey INHBE; 0.0064 (nM per method))?
A: 77.88%

Q: What about the “Remaining percentage … (PCH) (mean, %)” value (monkey INHBE; 0.032 (nM per method)) of the same substance?
A: 49.77%

Q: What about the “Remaining percentage … (PCH) (mean, %)” value (monkey INHBE; 0.16 (nM per method)) of the same substance?
A: 43.37%

Q: And the “Remaining percentage … (PCH) (mean, %)” value (monkey INHBE; 0.8 (nM per method))?
A: 49.75%

Q: What about the “Remaining percentage … (PCH) (mean, %)” value (monkey INHBE; 4 (nM per method)) of the same substance?
A: 46.38%

Q: And the “Remaining percentage … (PCH) (mean, %)” value (monkey INHBE; 20 (nM per method))?
A: 39.63%

Q: What about the pIC50 (monkey INHBE) of the same substance?
A: 10.52

Q: With “TJR102154: siRNA conjugate (Tables 14, 16); SS SEQ ID NO: 243, AS SEQ ID NO: 267 (sense UCAAAGCUAUUUUCAUAAU; antisense AUUAUGAAAAUAGCUUUGACU; conjugate ligand attached, 2'-OMe/2'-F pattern not given here)” as the substance, how does the “Remaining percentage … (Huh7) (mean, %)” value (human INHBE; 0.00128 (nM per method)) read?
A: 103.41%

Q: And the “Remaining percentage … (Huh7) (mean, %)” value (human INHBE; 0.0064 (nM per method))?
A: 100.81%

Q: What about the “Remaining percentage … (Huh7) (mean, %)” value (human INHBE; 0.032 (nM per method)) of the same substance?
A: 91.17%

Q: What about the “Remaining percentage … (Huh7) (mean, %)” value (human INHBE; 0.16 (nM per method)) of the same substance?
A: 50.85%

Q: What about the “Remaining percentage … (Huh7) (mean, %)” value (human INHBE; 0.8 (nM per method)) of the same substance?
A: 32.23%

Q: What about the “Remaining percentage … (Huh7) (mean, %)” value (human INHBE; 4 (nM per method)) of the same substance?
A: 30.29%

Q: And the “Remaining percentage … (Huh7) (mean, %)” value (human INHBE; 20 (nM per method))?
A: 20.46%

Q: And the pIC50 (human INHBE)?
A: 9.75

Q: What about the “Remaining percentage … (PCH) (mean, %)” value (monkey INHBE; 0.00128 (nM per method)) of the same substance?
A: 85.05%

Q: And the “Remaining percentage … (PCH) (mean, %)” value (monkey INHBE; 0.0064 (nM per method))?
A: 96.98%

Q: What about the “Remaining percentage … (PCH) (mean, %)” value (monkey INHBE; 0.032 (nM per method)) of the same substance?
A: 72.01%

Q: What about the “Remaining percentage … (PCH) (mean, %)” value (monkey INHBE; 0.16 (nM per method)) of the same substance?
A: 50.20%

Q: What about the “Remaining percentage … (PCH) (mean, %)” value (monkey INHBE; 0.8 (nM per method)) of the same substance?
A: 47.38%

Q: What about the “Remaining percentage … (PCH) (mean, %)” value (monkey INHBE; 4 (nM per method)) of the same substance?
A: 51.47%

Q: And the “Remaining percentage … (PCH) (mean, %)” value (monkey INHBE; 20 (nM per method))?
A: 58.66%

Q: And the pIC50 (monkey INHBE)?
A: 10.40
